# Data as given in US9580487B2, “Method of treating stomach or bowel-related disorders by administering glucagon-like-peptide-2 (GLP-2) analogues” (Zealand Pharma A/S, priority 2005, dated 2017).
# How the values were obtained:
# [1] = system: male Sprague Dawley rats treated with indomethacin; assay: Indomethacin-induced small intestinal ulcers (model of Crohn's disease), extent of ulceration; type: in vivo; details: prednisolone 10 mg/kg vs indomethacin alone
# Description: FIG. 13 is a graph illustrating the effect of compound 1848 (SEQ ID NO:36) on small intestinal ulcers induced by indomethacin. Male Sprague Dawley rats were treated with vehicle (saline; group 1) or indomethacin (7 mg/kg s.c., once daily for two days; groups 2-7). Indomethacin was given alone (group 2) or in combination with prednisolone (10 mg/kg s.c.; group 3) or with 8, 40, or 200 nmol/kg compound 1848 (SEQ ID NO:36) s.c. […] (groups 4-6). Finally, one group of rats was treated with combination treatment of prednisolone (10 mg/kg s.c.) and compound 1848 (SEQ ID NO:36), 200 nmol/kg s.c. once daily (group 7). Treatment with compound 1848 (SEQ ID NO:36) was initiated 4 days prior to indomethacin and continued during the two days of indomethacin treatment. On day 3, rats were sacrificed and upon necropsy, the small intestine was gently flushed with 10% formalin and filled with formalin for a period of 5 minutes, after which the intestine was cut open along the antimesenteric margin and suspended on a polypropylene plate. Any remaining intestinal contents were carefully removed with a pair of tweezers. After fixation for another 24 hours at room temperature, the tissue was rinsed in Milli-Q water and surface-stained for 20 minutes with Alcian Green 3BX (Chroma) prepared as a 0.5% solution in 1% acetic acid (Bie & Berntsen). After removal of excess staining solution with Milli-Q water the tissue preparation was transferred to 70% alcohol and analyzed using a stereomicroscope at low magnification (×7). Starting at the pylorus, the small intestine was scanned and the shape (circular vs. linear) and size (circular ulcers: diameter, linear ulcers: length×width) of all ulcers was measured using a standard ruler (resolution: 0.5 mm). An ulcer was defined as an area, which lacked epithelial surface. In healing ulcers only the area that still lacked epithelial surface was regarded an ulcer even if the villus structure was still missing in a larger area. All analysis was performed in a blinded manner. […] Treatment with prednisolone caused a significant reduction in the extent of ulceration by app. 29%. […] Values are means±SEM. * P<0.05 vs. indomethacin (group 2). ^#P<0.05 vs. prednisolone (group 3).
# Crohn's disease is a chronic disease that causes episodic inflammation of the small intestine. The effect of the GLP-2 analogue 1848 (SEQ ID NO:36) on small intestinal inflammation in an indomethacin-induced model of Crohn's disease was investigated. We have previously shown that administration of indomethacin (s.c, once daily for 2 days) induces small intestinal inflammation characterized by ulcerations and, increases in the pro-inflammatory cytokine, tumour necrosis factor alpha (TNF-α).
# To determine the effect of ZP1848 (SEQ ID NO:36) on ulceration 1848 (SEQ ID NO:36) (8, 40 and 200 nmol/kg, s.c, twice daily (9:00 and 16:00)) was given for 4 days prior to the first dose of indomethacin and for an additional two days together with indomethacin. The corticosteroid, prednisolone (10 mg/kg, p.o) was used as a positive control since corticosteroids are commonly used in the treatment of active inflammation in Crohn's disease. In addition a group of animals were given both 1848 (SEQ ID NO:36) (200 nmol/kg) and prednisolone to determine the effects of a combination treatment. Twenty four hours after the last dose of 1848 (SEQ ID NO:36) had been given the animals were sacrificed the small intestine was gently flushed clean and fixed. To determine the extent of ulceration the intestine was cut open along the antimesenteric margin, suspended on a polypropylene plate and surface-stained with Alcian Green 3BX. Starting at the pylorus, the small intestine was scanned and the shape (circular vs. linear) and size (circular ulcers: diameter, linear ulcers: length×width) of all ulcers was measured using a standard ruler (resolution: 0.5 mm). An ulcer was defined as an area, which lacked epithelial surface. […]
# [2] = system: TNF-α; assay: Small intestinal tissue content of TNF-α (ELISA) in rats with indomethacin-induced inflammation; type: in vivo; details: prednisolone 10 mg/kg alone
# Description: Male Sprague Dawley rats were treated with vehicle (saline; group 1) or indomethacin (7 mg/kg s.c., once daily for two days; groups 2-7). […] On day 3, rats were sacrificed and upon necropsy, the small intestine was divided into three segments of equal length corresponding to 1) duodenum and proximal jejunum, 2) mid and distal jejunum and 3) ileum. Samples were immediately snap-frozen in liquid N2 and stored at −80° C. until analysis. Homogenization and extraction of cellular protein from small intestinal segments was performed according to the following procedure: Tissue segments were weighed and added a volume of 1.5 ml per gram tissue ice-cold (4° C.) extraction buffer (10 mM Tris-HCl (Sigma) and 1 mM EDTA (J. T. Baker), (pH 7.6) with 0.05% sodium azide (Fluka), 1% Tween-80 (Fluka), 2 mM phenylmethylsulfonyl fluoride (PMSF, Fluka) and 1 μg/ml of each of the protease inhibitors aprotinin, leupeptin and pepstatin A (Roche Diagnostics)). The tissue was cut into small bits with a pair of scissors and homogenized three times for 20 seconds (IKA UltraTurrax T25 homogenizer, Janke & Kunkel) at 9500 rpm with intermittent cooling on ice for 30 seconds. The homogenate was centrifuged at 20.000×g for 30 minutes at 4° C., the supernatant was collected and stored at −20° C. until analysis for TNF-α small intestinal protein extractions were analyzed for TNF-α using a commercially available ELISA kit according to the manufacturer's instructions (Rat Tumor Necrosis Factor-α UltraSensitive ELISA kit, Biosource International Inc.). The assay has a detection limit of 0.7 pg/ml. Protein extractions were analyzed for total protein content using a commercially available assay (DC protein assay, Bio-Rad Laboratories Ltd.). Small intestinal tissue levels of TNF-α were expressed relative to total protein. […] Values are means±SEM. * P<0.05 vs. indomethacin (group 2).
# At sacrifice, however the small intestine was separated into three segments of equal length (proximal, mid and distal). TNF-α concentrations were measured in each of the individual segments using a commercially available ELISA kit.
# [3] = in vivo; cited from earlier work
# [4] = system: colonic neoplasms in mice; details: cited from earlier work
Compound,Reduction in the extent of ulceration [1],"Tissue levels of TNF-α, all 3 segments [2]",half life [3],Growth of colonic neoplasms [4]
"C[C@]12C=CC(=O)C=C1CC[C@@H]1[C@@H]2[C@@H](O)C[C@@]2(C)[C@H]1CC[C@]2(O)C(=O)CO [prednisolone, reference compound]",~29%,did not significantly affect tissue levels of TNF-α,,
H-His-Ala-Asp-Gly-Ser-Phe-Ser-Asp-Glu-Met-Asn-Thr-Ile-Leu-Asp-Asn-Leu-Ala-Ala-Arg-Asp-Phe-Ile-Asn-Trp-Leu-Ile-Gln-Thr-Lys-Ile-Thr-Asp-OH [GLP-2],,,about 7 minutes,accelerate the growth of colonic neoplasms in mice
